Consider five compounds from BindingDB's records for doi:10.7270/Q269721H (Nmmlsc, 2010).

Each structure is given as a SMILES string. pEC50: −log10 of the molar value. Where only a bound is given, the exact number is not on record here.

For this assay, the target named is Guanine nucleotide-binding protein G(o) subunit alpha (Homo sapiens, UniProt P09471). The experiment in a line: modulators of RGS7 binding to Galphao – multiplexed assay, additional SAR round, SAR follow-up (AID 2826).
Chain of Guanine nucleotide-binding protein G(o) subunit alpha (P09471 whole entry): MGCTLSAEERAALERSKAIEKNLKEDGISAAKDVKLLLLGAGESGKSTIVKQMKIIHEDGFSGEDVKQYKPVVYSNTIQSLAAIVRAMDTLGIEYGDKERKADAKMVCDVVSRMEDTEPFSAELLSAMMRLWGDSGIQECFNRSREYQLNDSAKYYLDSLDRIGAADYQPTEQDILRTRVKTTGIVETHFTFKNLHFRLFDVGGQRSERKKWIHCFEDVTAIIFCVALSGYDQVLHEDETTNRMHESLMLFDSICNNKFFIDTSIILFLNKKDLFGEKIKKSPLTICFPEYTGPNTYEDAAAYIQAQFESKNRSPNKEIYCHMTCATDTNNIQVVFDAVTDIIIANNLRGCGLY
On to `O=C(c1sc2cc([N+](=O)[O-])ccc2c1Cl)N1CCNCC1`, for which the pEC50 was less than 4.52. Turning to `O=C(NCCCN1CCOCC1)c1sc2cc([N+](=O)[O-])ccc2c1Cl` [3-chloranyl-N-(3-morpholin-4-ylpropyl)-6-nitro-1-benzothiophene-2-carboxamide], the pEC50 is less than 4.52. Next, `O=C(NCCCn1ccnc1)c1sc2cc([N+](=O)[O-])ccc2c1Cl` [3-chloro-N-[3-(1-imidazolyl)propyl]-6-nitro-1-benzothiophene-2-carboxamide]: less than 4.52; `NC(=O)c1sc2cc([N+](=O)[O-])ccc2c1Cl` [KSC-1-100]: less than 4.52. The value for `Cc1ccc2c(Cl)c(C(=O)NCCCN3CCOCC3)sc2c1` [KUC103874N] was less than 4.52.

In general, pEC50 refers to the negative decadic logarithm of the EC50, by convention in mol/L.
